Consider four compounds from ChEMBL document CHEMBL1141445, “Rhizochalins C and D from the sponge Rhizochalina incrustata. A rare threo-sphingolipid and a facile method for determination of the carbonyl position in alpha,omega-bifunctionalized ketosphingolipids” (2007).

This test concerns Nakaseomyces glabratus. Put plainly: Antifungal activity against fluconazole-resistant Candida glabrata. It counts as functional. To be noted: read-out: ED50 (the source's name).

Some results are limits rather than exact numbers.

`CC1[C@@H](CO)O[C@@H](O[C@H](CCCCCCCC(=O)CCCCCCCCCCCCCC[C@@H](O)[C@@H](C)N)[C@@H](N)CO)[C@H](O)[C@H]1O` (some centres undefined) [OCEANAPISIDE]: the EC50 came to 40 µM.

For the compound `C[C@@H](N)[C@H](O)CCCCCCCC(=O)CCCCCCCCCCCCCC[C@@H](O[C@@H]1O[C@H](CO)[C@H](O)[C@H](O)[C@H]1O)[C@H](N)CO` [RHIZOCHALIN C], the EC50 was over 150 µM.

Turning to `C[C@@H](N)[C@H](O)CCCCCCCCC(=O)CCCCCCCCCCCCCC[C@@H](O[C@@H]1O[C@H](CO)[C@H](O)[C@H](O)[C@H]1O)[C@@H](C)N` [RHIZOCHALIN D], the EC50 was over 150 µM.

Turning to `C[C@@H](N)[C@H](O)CCCCCCCC(=O)CCCCCCCCCCCCCC[C@@H](O[C@@H]1O[C@H](CO)[C@H](O)[C@H](O)[C@H]1O)[C@@H](C)N` [RHIZOCHALIN], the EC50 amounted to 40 µM.
